According to paper PMC8309108, “Rapid and Sensitive Quantification of Intracellular Glycyl-Sarcosine for Semi-High-Throughput Screening for Inhibitors of PEPT-1” (Pharmaceutics, 2021):
Entries after “also recorded” stand apart in the source; their conditions may differ. Non-standard residues stand in square brackets, D forms with d. Residues, ends and D or L forms follow the SMILES beside them. Sar = CNCC(=O)O

Assays:
PEPT-1 [1] = conditions: read-out: reported Ki; cited from earlier work
PEPT-1 [2] = biological target: T1, PEPT-1 (Homo sapiens, UniProt P46059); assay: Inhibition of PEPT-1 mediated Gly-Sar uptake in Caco-2 cells (UPLC-MS/MS quantification of intracellular Gly-Sar); assay type: cell-based; conditions: for IC50: 7 d differentiation, 37 °C, pH = 6.0, three independent experiments; for Ki: converted from IC50 with the IC50-to-Ki tool, assuming competitive inhibition and a Km of 860 µM for Gly-Sar, read-out: calculated Ki
T1 construct: allowed to differentiate for at least 7 d to ensure sufficient PEPT-1 expression; host or cells: Caco-2
T1 sequence (P46059 1-708): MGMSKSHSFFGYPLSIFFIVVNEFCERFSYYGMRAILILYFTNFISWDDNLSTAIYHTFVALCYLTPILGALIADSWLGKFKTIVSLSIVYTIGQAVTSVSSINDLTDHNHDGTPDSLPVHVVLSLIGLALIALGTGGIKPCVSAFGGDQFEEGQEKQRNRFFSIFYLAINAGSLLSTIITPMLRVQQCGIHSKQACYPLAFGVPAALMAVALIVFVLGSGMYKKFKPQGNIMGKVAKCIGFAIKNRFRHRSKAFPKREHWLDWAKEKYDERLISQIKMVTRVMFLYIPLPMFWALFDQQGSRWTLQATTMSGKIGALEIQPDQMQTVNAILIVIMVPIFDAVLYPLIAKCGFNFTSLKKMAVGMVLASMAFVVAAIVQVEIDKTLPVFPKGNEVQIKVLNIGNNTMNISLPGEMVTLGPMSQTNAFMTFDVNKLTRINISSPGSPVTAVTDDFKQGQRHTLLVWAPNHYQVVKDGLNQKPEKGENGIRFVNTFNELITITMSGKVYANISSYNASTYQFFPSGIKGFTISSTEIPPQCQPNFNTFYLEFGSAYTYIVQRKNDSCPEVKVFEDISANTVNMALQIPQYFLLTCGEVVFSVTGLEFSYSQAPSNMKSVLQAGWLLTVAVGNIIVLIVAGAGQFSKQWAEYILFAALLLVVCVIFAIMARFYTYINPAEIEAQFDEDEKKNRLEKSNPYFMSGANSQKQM
Experimental: Caco-2 cells were cultivated in DMEM supplemented with 10% FBS, glutamine (2 mM), penicillin (100 U/mL), streptomycin (100 µg/mL), and 1% NEAS. They were kept at 37 °C and 5% CO2 and passaged once a week. For validation and uptake experiments, cells were seeded in 96-well plates at a density of 6.25 × 10^4 cells/cm^2 and allowed to differentiate for at least 7 d to ensure sufficient PEPT-1 expression. The uptake buffer (MES) was prepared as previously described by Sun et al. and contained 50 mM MES, 136.9 mM NaCl, 5.4 mM KCl, 1.26 mM CaCl2, 0.81 mM MgSO4 × 7 H2O, 0.5 mM Na2HPO4, 0.44 mM KH2PO4, 0.42 mM NaHCO3, and 5.54 mM glucose. The pH value of the uptake buffer was adjusted to pH = 6.0 using either HCl or NaOH solutions. Gly-Sar uptake was tested after 7, 24, and 28 d of Caco-2 cell differentiation. […] After an incubation period of 10 min at 37 °C under gentle agitation, transport was terminated by removing the solution and washing the cells with ice-cold MES buffer (100 µL/well) thrice while the plate was kept on ice. Afterwards, cells were lysed in the 96-well cell culture plate with aqueous NH4OH (10%, 50 µL/well) and sample preparation was performed as described below.
Sample preparation was performed directly in the 96-well cell culture plates. Cell lysates (50 µL) were spiked with 25 µL IS spike solution and, depending on the sample type, with either 5 µL of the respective calibration or QC solution (calibration and QC samples) or with 5 µL H2O/ACN (95/5, v/v) + 0.1% FA for volume compensation (study samples). Subsequently, all samples were filled with 180 µL ACN + 0.1% FA for protein precipitation and centrifuged for 10 min at 800 g. Finally, the 96-well plates were transferred into the Sample Manager for direct injection onto the UPLC-MS/MS system.
The quantification of Gly-Sar in cell homogenates was performed on a UPLC-MS/MS system consisting of a triple-stage quadrupole mass spectrometer (Waters Xevo TQ-XS with Z-spray ESI source) and an Acquity Classic UPLC® (Waters, Milford, MA, USA). Chromatographic separation was achieved on a Waters Cortecs UPLC® HILIC column (90 Å, 1.6 µm, 2.1 × 50 mm) heated to 60 °C with the injection volume set to 10 µL and a flow rate of 0.4 mL/min. The mobile phase consisted of H2O/ACN (95/5, v/v) + 0.1% FA (aqueous eluent; A) and ACN + 0.1% FA (ACN eluent; B). Gly-Sar was eluted with an isocratic composition of 16% A/84% B for 3 min. Subsequently, the conditions were changed to 50% A/50% B within 0.5 min and maintained for 0.5 min to flush the column. Afterwards, the initial ratio of 16% A and 84% B was restored during 0.5 min. The mass spectrometer was operated using an electrospray ionization (ESI) source in the positive ion detection mode. Quantification of Gly-Sar and IS was performed by selected reaction monitoring (SRM) using argon collision gas for collision-induced dissociation (CID). Mass spectrometric parameters were optimized for the detection of Gly-Sar and the IS using the auto-optimization feature IntelliStart of the MassLynx V4.2 system software (Waters, Milford, MA, USA).
Calibration curves were fitted by the Waters TargetLynx V4.2 software (Waters, Milford, MA, USA) using 1/x^2-weighted linear regressions of the peak area ratios of Gly-Sar and the IS. General calculations were performed using Microsoft Excel 2010 ([…]). IC50 values (i.e., the inhibitor concentration, which causes a baseline-normalized half-maximal Gly-Sar uptake) were calculated using the GraphPad Prism 9 software (version 9.1.0; GraphPad Software Inc., La Jolla, CA, USA). Intracellular Gly-Sar concentrations at varying inhibitor concentrations were fitted with nonlinear regression to a four-parameter concentration–response curve (4PL) according to the equation: […]

PEPT-1 [3] = biological target: T1, PEPT-1; set-up: method as in PMID 22490229; conditions: cited from earlier work
[4] = Stability of Gly-Sar in processed cell lysate and spike solutions; assay type: physicochemical
Experimental: The assay to quantify Gly-Sar in cell homogenates was validated following the EMA and FDA guidelines on bioanalytical method validation. For this purpose, the linearity, accuracy, precision, selectivity, stability, recovery, and matrix effect of the assay were determined in three validation batches, which included eight calibration samples in duplicates and 24 QC samples at four concentrations (LLOQ, low, mid, and high QC) in sixfold determination. Accuracy (%) is the degree of agreement between the determined value and known true value and was subsequently determined by dividing the quantified mean concentration by the nominal concentration. Precision (% CV) describes the degree of agreement between individual measurements of the same analyte and was calculated by dividing the standard deviation by the quantified mean of the measurements. Chromatograms of blank cell lysate samples from six different cell passage numbers and of corresponding spiked samples were assessed for interfering signals at the retention time of Gly-Sar and IS to determine the selectivity of the method. […] Recovery was evaluated for low, mid, and high QC concentration of Gly-Sar by the comparison of peak areas of QC samples spiked after extraction with the respective peak areas of […] spiked after extraction. […] Gly-Sar integrity was further evaluated in the spike solutions. […]

[5] = Caco-2 cells, 20 µM Gly-Sar, 10 min

SMILES	Ki (PEPT-1 [1]) [µM]	IC50 (PEPT-1 [2]; [5]) [µM]	Ki (PEPT-1 [2]) [µM]	further results
NCC(=O)N1CCC[C@H]1C(=O)O [Gly-Pro, glycyl-proline] (H-Gly-Pro-OH)	300	257 ± 28	250	
CN(CC(=O)O)C(=O)CN [Gly-Sar, glycyl-sarcosine] (H-Gly-[Sar]-OH)				Km (PEPT-1 [3]): 860 µM; deviation of peak areas from the initial values ([4]; samples stored in the autosampler, over 24 h): < 15%; time stable in spike solutions ([4]; spike solutions in H2O/ACN (95/5, v/v) + 0.1% FA): at least 9 months; fraction of Gly-Sar uptake that is PEPT-1 mediated (PEPT-1 [2]; Caco-2 cells, 10 min incubation): around 86%; ratio of bottom to top of the fitted sigmoidal curves (non-inhibited, non-PEPT-1 specific Gly-Sar uptake) (PEPT-1 [2]; mean over all measured IC50 determinations, Caco-2 cells): 14.0 ± 6.7%
Nc1nc2c(ncn2COCCO)c(=O)[nH]1 [aciclovir]				inhibition of Gly-Sar uptake (in words) (PEPT-1 [2]; Caco-2 cells, 20 µM Gly-Sar, 10 min, pH = 6.0, 0.1–5000 µM inhibitor): no inhibition; also recorded: did not interfere with Gly-Sar uptake; also recorded: did no inhibit the Gly-Sar uptake
CCCCc1nc(Cl)c(CO)n1Cc1ccc(-c2ccccc2-c2nn[nH]n2)cc1 [losartan]	24	45.1 ± 15.8	44	
CC(C)[C@H](N)C(=O)OCCOCn1cnc2c(=O)[nH]c(N)nc21 [valaciclovir]	740	894 ± 309	874	
